Data on 92 compounds can be found in PubChem BioAssay AID1902 (Broad Institute, 2009).

Values joined by “and” are separate entries in the source; they are usually repeats but may differ in a detail not shown here. Equal values may be shown once. Active and inactive are the calls of the source.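 How the source made its calls: active means EC50 no more than a set limit of log units above the highest dose; inactive means the rest.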

This experiment concerns the target S. pyogenes SKKanGAS, kanamycin survival, BacTiterGlo, 6 h. Briefly: S. pyogenes SKKanGAS kanamycin growth inhibitors – SKKanGAS strain, luminescence, dose confirmation, streptokinase promoter inhibitor project, dose response (AID 1902).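 Further: lower survival reflects blocked streptokinase promoter driving kanamycin resistance gene.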
What is called EC50 is the concentration needed to bring the measured effect to its halfway point. As for `Cc1cccc(OCCn2c(NC(=O)c3ccco3)nc3ccccc32)c1`, the EC50 was 2.69 µM.

With `O=S(=O)(Nc1nccs1)c1ccc(Nc2nnc(-c3ccccc3)c3ccccc23)cc1`, the EC50 is 2.51 µM.

On to `O=C(COc1ccc(F)cc1)Nc1nc(-c2ccccn2)cs1`, for which the EC50 was 5.55 µM.

For the compound `Clc1ccc(CO/N=C(\Cn2ccnc2)c2ccc(Cl)cc2Cl)c(Cl)c1`, the EC50 is 1.95 µM.

With `Cc1ccc(C(=O)NC(=S)N(C)C2CCCCC2)cc1Br`, the half-maximal effective concentration (EC50) is 2.96 µM.

For the compound `CCCc1cc2c(-c3ccccc3)cc(=O)oc2cc1OCc1ccc(C(=O)O)o1`, the EC50 was 8.9 µM.

`C=CCn1c(Oc2ccc(C(=O)OC)cc2)nc2c1c(=O)n(C)c(=O)n2C`: the EC50 was 7.96 µM.

As to `Nc1nc2ccccc2n1/N=C/c1ccc(-c2ccccc2)o1`, the EC50 was 1.96 µM.

`N#C/C(=C(/O)CN1CCN(c2ccccc2F)CC1)c1nc(-c2ccccc2)cs1`: the EC50 is 12.2 µM.

Consider `C=C1CCC2C(C)(C)[C@@H](O)CC[C@@]2(C)[C@@H]1COc1ccc2ccc(=O)oc2c1` (some centres not stated), for which the EC50 is 11.6 µM.

Turning to `NS(=O)(=O)c1ccc(N2N=C(c3ccccc3)CC2c2ccc(F)cc2)cc1` (configuration not stated), the EC50 was 5.28 µM.

On to `Cc1cc(C)c(C)c(S(=O)(=O)N2CCC(C(=O)NNC(=O)c3ccccc3O)CC2)c1C`, for which the EC50 was 11.8 µM.

In the case of `CC(C)(C)c1ccc(-c2noc(-c3ccc4c(c3)CCO4)n2)cc1`, the EC50 is 7.95 µM.

As for `O=C(O)CSc1nnc(Cn2c(=O)sc3ccccc32)n1-c1cccc(Cl)c1`, the EC50 was > 15 µM (inactive).

`Cc1[nH]nc(Nc2ccc(C(C)C)cc2)c1[N+](=O)[O-]`: the EC50 was 13.8 µM.

As for `CN1C(=O)/C(=C/c2ccc(C(F)(F)F)cc2)Sc2ccc(C(=O)N3CCN(c4ccccn4)CC3)cc21`, the EC50 is 1.57 µM.

As to `Cc1ccc(C)n1-c1sc2c(c1C#N)CCC(C)C2` (configuration not stated), the EC50 was 2.35 µM.

For `CCCCCCCn1c(NC(=O)CC)nc2ccccc21`, the EC50 is 0.342 µM.

`COc1ccc(-n2c(=S)[nH]c3cc(C(=O)Nc4ccc(C)c(F)c4)ccc3c2=O)c(OC)c1`: the EC50 was 2.84 µM.

Regarding `Cc1nn(-c2ccccc2)c(Cl)c1C1C(C#N)=C(N)Oc2c1c(=O)oc1ccccc21` (configuration not stated), the EC50 was 0.112 µM.

Turning to `Clc1ccc(-c2csc(Nc3ccccc3)[n+]2Cc2ccco2)c(Cl)c1`, the EC50 is 3.35 µM.

In the case of `Cc1cccc(CC(Cc2nc3ccccc3[nH]2)c2nc3ccccc3[nH]2)c1` (configuration not stated), the EC50 is 9.88 µM.

With `Cc1ccc(/C=C/C(=O)c2ccccc(=O)c2O)c(C)c1`, the EC50 is 3.57 µM.

On to `Cc1cccc(C)c1OCC(=O)Nc1ccccc1N1CCCCC1`, for which the EC50 is 2.78 µM.

Consider `C[C@H]1[C@H](C)CC[C@]2(C(=O)O)CC[C@]3(C)C(=CC[C@@H]4[C@@]5(C)CC[C@H](O)C(C)(C)[C@@H]5CC[C@]43C)[C@H]12`, for which the EC50 is 1.79 µM.

With `COc1ccc2cc(C(=O)/C=C/c3cc(OC)c(O)c(OC)c3)ccc2c1`, the EC50 was 6.68 µM.

For the compound `COc1cccc(-c2nnc(Nc3nc4c(F)cccc4s3)o2)c1`, the EC50 was 0.502 µM.

Regarding `COc1cc2oc3ccc(C#Cc4ccc(N)cc4)cc3c(=O)c2cc1OC`, the EC50 was 0.799 µM.

`CCN1C(=O)C(CC(=O)Nc2ccc(Br)cc2)N(CCCc2ccccc2)C1=S` (configuration not stated): the EC50 was 2.9 µM.

Take `O=[N+]([O-])c1cc(Cl)c(O)c2ncccc12`: the EC50 is 0.782 µM.

In the case of `COc1ccc(-n2nc3cc(C)c(NC(=O)C(C)C)cc3n2)cc1`, the EC50 is > 15 µM (inactive).

With `CC(C)OC(=O)c1cccnc1N1CCN(c2cccc(Cl)c2)CC1`, the EC50 was 4.36 µM.

As to `Fc1ccc(Cn2cccc2C2=NC(c3ccccc3)CO2)cc1` (configuration not stated), the EC50 was 7.34 µM.

As to `COc1ccccc1CCNC(=O)C(=O)c1cn(CC(=O)N2CCCC2)c2ccccc12`, the EC50 is > 15 µM (inactive).

On to `COc1ccc(/C=N/n2c(C)nc3c([nH]c4ccccc43)c2=O)cc1CN1CCCC(C)(C)C1`, for which the EC50 was 7.93 µM.

With `CCn1cc(CN2CCC(n3nccc3NC(=O)Cc3ccccc3)CC2)cn1`, the EC50 is > 15 µM (inactive).

Consider `OC1(C#Cc2c(-c3ccsc3)oc3ccc(N4CCOCC4)cc23)CCCCC1`, for which the EC50 is 3.59 µM.

Take `COc1ccccc1-c1cn[nH]c1-c1ccc(OCc2ccc(F)cc2)cc1O`: the EC50 was 10.8 µM.

In the case of `C[C@H]1c2cccc(O)c2C(O)=C2C(=O)[C@]3(O)C(O)=C(C(N)=O)C(=O)[C@@H](N(C)C)C3[C@@H](O)C21` (some centres not stated), the EC50 is less than 0.06 µM.

Regarding `Nc1ncc(Br)cc1S(=O)(=O)Nc1cc(C(F)(F)F)cc(C(F)(F)F)c1`, the EC50 was 6.39 µM.

As for `COc1ccc(C(=O)NNC(=S)NC(=O)c2cccs2)cc1`, the EC50 is 2.2 µM.

On to `CCOC(=O)Cc1cc(=O)n2[nH]cc(-c3cccc(Br)c3)c2n1`, for which the EC50 is 3.56 µM.

Regarding `Cc1cc(Oc2ccc(Cl)cc2)nc(-c2ccccc2O)n1`, the EC50 was > 15 µM (inactive).

Consider `C/C(=N/Nc1cc(-c2ccccc2)nc(-c2ccccc2)n1)c1ccc(O)cc1`, for which the EC50 is 2.08 µM.

For `O=C1/C(=C\c2cccc(O)c2O)SC(=S)N1Cc1ccccc1`, the EC50 is 2.2 µM.

On to `Cc1ccc(O)c(/C=N/NC(=O)Cc2ccc(Cl)cc2)c1`, for which the EC50 was 2.78 µM.

As to `CCOc1cc(/C=N/Nc2cccc(C(=O)O)c2)ccc1OC(=O)c1ccccc1`, the EC50 is 5.18 µM.

As to `COc1cccc2c1C(=O)c1c(O)c3c(c(O)c1C2=O)C[C@@](O)(C(=O)CO)C[C@@H]3O[C@H]1C[C@H](N)[C@H](O)[C@H](C)O1`, the EC50 is 1.15 µM.

For `O=S(=O)(Cc1cc(NCc2ccccc2)nc(-c2ccccn2)n1)c1ccccc1`, the EC50 was 0.808 µM.

In the case of `CC12CCC(C/C1=N\N=C1\NC(=O)/C(=C\c3cccc(Br)c3)S1)C2(C)C` (configuration not stated), the EC50 was 0.638 µM.

In the case of `O=C(NCc1ccc(F)cc1)C(=O)Nc1nc(C23CC4CC(CC(C4)C2)C3)cs1`, the EC50 was 0.637 µM.

As to `COc1cc(C(=O)NNC(=S)NC(=O)c2ccccc2C)cc(OC)c1OC`, the EC50 was 1.88 µM.

For the compound `CC(=O)NC(=S)Nc1ccc(NC(=S)NC(=O)/C=C/c2ccco2)cc1`, the EC50 was 8.72 µM.

For `Cc1nn(C)c(C(=O)Nc2ccc(S(=O)(=O)NC34CC5CC(CC(C5)C3)C4)cc2)c1Br`, the EC50 is 4.9 µM.

Take `O=C(Nc1nnc(-c2ccncc2)o1)c1ccc2ccccc2c1`: the 50% effective concentration (EC50) is 5.02 µM.

`CC(C)(C)c1ccc(C(=O)Nc2nnc(C3=COCCO3)o2)cc1`: the EC50 is 0.446 µM.

Regarding `COc1ccc(S(=O)(=O)N2CCOC2CNC(=O)C(=O)NCc2ccccc2Cl)cc1` (configuration not stated), the EC50 was > 15 µM (inactive).

In the case of `CCN1/C(=C/C=C/c2oc3ccc(-c4ccccc4)cc3[n+]2CC)Oc2ccc(-c3ccccc3)cc21`, the EC50 was 2.07 µM.

`Cc1cc(C)n(-c2nc(Nc3ccccc3C(F)(F)F)nc(-n3nc(C)cc3C)n2)n1`: the EC50 is 2.67 µM.

As for `O=C1NC(=O)/C(=C\c2ccccc2OCc2ccccc2)S1`, the EC50 was 10.3 µM.

For `CSCc1nnc(NC(=O)c2ccc(S(=O)(=O)N(CC(C)C)CC(C)C)cc2)o1`, the EC50 is 0.724 µM.

Take `O=C(O)c1ccc(N=Nc2c(O)[nH]c3ccc(Br)cc23)cc1`: the EC50 was 2.03 µM.

As to `Cc1ccc(Cn2c(C(CO)Nc3nc(-c4ccc(F)cc4)cs3)nc3ccccc32)cc1` (configuration not stated), the EC50 is 3.35 µM.

Consider `C[C@]12CC[C@@H]3c4ccc(OC(=O)c5ccccc5)cc4CC[C@H]3[C@@H]1CC[C@@H]2O`, for which the EC50 is 1.92 µM.

Regarding `CCCN(CC(=O)Nc1ccccc1OC)C(=O)c1ccncc1`, the EC50 is > 15 µM (inactive).

As to `CCC(=O)Oc1ccc(-c2nc(-c3cccnc3)no2)cc1`, the EC50 was 4.3 µM.

With `Cc1cc2nc(N3C(=O)CNC3=S)sc2cc1C`, the EC50 is 2.21 µM.

In the case of `O=C(O)c1ccc(N/N=C/c2ccc(-c3cc(Cl)ccc3Cl)o2)cc1`, the EC50 is 2.48 µM.

For `CCCCC(=O)NC(c1ccc(Cl)cc1Cl)c1ccc2cccnc2c1O` (configuration not stated), the EC50 was 1.97 µM.

As to `CCN(CC)c1ccc(-c2nn3c(-c4ccccc4OC)nnc3s2)cc1`, the EC50 is 6.21 µM.

With `CN(CC1CCCO1)S(=O)(=O)c1ccc(C(=O)Nc2ccccc2F)cc1` (configuration not stated), the EC50 is > 15 µM (inactive).

As to `CCCc1cc(=O)n2[nH]cc(-c3ccc(Cl)cc3)c2n1`, the EC50 is 1.78 µM.

Consider `CN(C)S(=O)(=O)c1ccc(C(=O)Nc2nnc(-c3ccc4c(c3)CCCC4)o2)cc1`, for which the EC50 was 0.144 µM.

Turning to `Oc1ccc2ccccc2c1/C=N/Nc1nnc(-c2ncc[nH]2)c2ccccc12`, the EC50 is 1.55 µM.

Turning to `CC(=O)N(CCC(Cc1ccccc1)c1ccc2c(c1)OCO2)Cc1ccc(Cl)cc1` (configuration not stated), the concentration giving a half-maximal response (EC50) was 3.42 µM.

Take `CCOC(=O)c1c(NC(=O)c2c(N)n(CCCOC)c3nc4ccccc4nc23)sc2c1CCCC2`: the EC50 was 8.85 µM.

In the case of `CCCn1c(C2CCCN2c2nc(-c3cccc(Br)c3)cs2)nc2cc(Cl)c(Cl)cc21` (configuration not stated), the EC50 was 3.68 µM.

For the compound `O=C(N/N=C/c1cc2c3c(c1O)CCCN3CCC2)c1ccccc1O`, the EC50 is 7.14 µM.

`C/C(=N\NC(=O)c1ccccc1N)c1ccc(NC(=O)Cc2ccccc2)cc1`: the EC50 is 4.95 µM.

In the case of `CC(=O)O[C@H]1CC[C@]2(C)[C@H]3CC=C4[C@@H]5[C@@H](C)[C@H](C)CC[C@]5(C(=O)O)CC[C@@]4(C)[C@]3(C)CC[C@H]2C1(C)C`, the EC50 was 2.83 µM.

Turning to `COc1ccc(NC(=O)c2cc(-c3cc(C)cc(C)c3O)n[nH]2)cc1Cl`, the EC50 is 2.25 µM.

On to `COc1ccc(-c2csc(NC(=O)c3ccc(C(C)(C)C)cc3)c2C(=O)O)cc1`, for which the EC50 was 1.21 µM.

On to `Cc1ccc(C(O)(C(=O)NNc2ccc3ccccc3n2)c2ccc(C)cc2)cc1`, for which the EC50 was 2.04 µM and 2.98 µM.

For `CC(C)CN(Cc1cc(=O)oc2cc3c(cc12)CCCC3)CC(C)C`, the EC50 was 7.82 µM.

As for `Cc1nnc(NC(=O)c2ccc(S(=O)(=O)N(C)Cc3ccccc3)cc2)o1`, the EC50 was 4.71 µM.

Turning to `CN1c2ccsc2/C(=N/Nc2ccccc2)CS1(=O)=O`, the EC50 was 2.21 µM.

In the case of `COc1ccc(CCN2C(=O)c3[nH]nc(-c4ccccc4O)c3C2c2cccc(Cl)c2)cc1` (configuration not stated), the EC50 was 7.71 µM.

In the case of `Cc1[nH]c(-c2ccc(F)cc2)cc1C(=O)N1CCN(c2cccc(Cl)c2)CC1`, the EC50 is 4.92 µM.

Regarding `CC(=O)C1=C(c2ccc(Br)cc2)C(=O)c2ccccc2C1=O`, the EC50 was 1.45 µM.

Consider `CCOc1ccc(NC(=S)NNC(=S)Nc2cccc(C(F)(F)F)c2)cc1`, for which the EC50 is > 15 µM (inactive).

Regarding `CCCCCCCCCCCC1=C(O)C(=O)C=C(O)C1=O`, the EC50 is 1.67 µM.

As to `COC(=O)c1ccc(CSc2n[nH]c(=S)s2)o1`, the EC50 is 3.25 µM.
